Test results taken from paper PMC6084503, “Pyrrolo[3,2-c]pyridine derivatives with potential inhibitory effect against FMS kinase: in vitro biological studies” (Journal of Enzyme Inhibition and Medicinal Chemistry, 2018).
pIC50: −log10 of the molar value.

What was measured:
[1] = system: PC-3 prostate cancer cell line; assay: NCI antiproliferative screening, 5-dose; format: cell-based
Experimental: (§1) Compounds 1r and KIST101029 were tested at the National Cancer Institute (NCI, Bethesda, MD) following their standard protocol [https://dtp.cancer.gov/discovery_development/nci-60/methodology.htm].
(§2) Due to over-expression of FMS kinase in certain types of tumours such as ovarian, prostate, and breast[5–7] cancers, we decided to test the antiproliferative activity of compound 1r against a panel of six ovarian, two prostate, and five breast cancer cell lines. It was also tested against HS 27 fibroblasts in order to investigate the selectivity indexes. The results were compared with those of KIST101029 as a reference standard.

[2] = system: MDA-MB-231/ATCC breast cancer cell line; assay: NCI antiproliferative screening, 5-dose; format: cell-based
Experimental: as §1, §2

[3] = system: IGROV1 ovarian cancer cell line; assay: NCI antiproliferative screening, 5-dose; format: cell-based
Experimental: as §1, §2

[4] = system: NCI/ADR-RES ovarian cancer cell line; assay: NCI antiproliferative screening, 5-dose; format: cell-based
Experimental: as §1, §2

[5] = system: OVCAR-5 ovarian cancer cell line; assay: NCI antiproliferative screening, 5-dose; format: cell-based
Experimental: as §1, §2

[6] = system: HS 578T breast cancer cell line; assay: NCI antiproliferative screening, 5-dose; format: cell-based
Experimental: as §1, §2

[7] = system: DU-145 prostate cancer cell line; assay: NCI antiproliferative screening, 5-dose; format: cell-based
Experimental: as §1, §2

[8] = system: OVCAR-8 ovarian cancer cell line; assay: NCI antiproliferative screening, 5-dose; format: cell-based
Experimental: as §1, §2

[9] = system: OVCAR-4 ovarian cancer cell line; assay: NCI antiproliferative screening, 5-dose; format: cell-based
Experimental: as §1, §2

[10] = system: OVCAR-3 ovarian cancer cell line; assay: NCI antiproliferative screening, 5-dose; format: cell-based
Experimental: as §1, §2

[11] = system: MDA-MB-468 breast cancer cell line; assay: NCI antiproliferative screening, 5-dose; format: cell-based
Experimental: as §1, §2

[12] = system: T-47D breast cancer cell line; assay: NCI antiproliferative screening, 5-dose; format: cell-based
Experimental: as §1, §2

[13] = system: MCF7 breast cancer cell line; assay: NCI antiproliferative screening, 5-dose; format: cell-based
Experimental: as §1, §2

[14] = target: T1, EPHA1 (Homo sapiens, UniProt P21709); assay: Kinase HotSpot 40-kinase panel; format: biochemical; conditions: single-dose concentration of 1 μM
T1 construct: purchased Reaction Biology Corp. (Kinase HotSpot)
Experimental: (§3) Reaction Biology Corp. Kinase HotSpot^SM service [http://www.reactionbiology.com] was utilised for screening of the target compounds as per the protocol reported in the literature.
(§4) Compound 1r was tested against a panel of 40 kinases including FMS. […] Its inhibition percentages against FLT3 (D835Y) and c-MET kinases were 42% and 40%, respectively. So its IC50 values against both of them will be in micromolar scale. […] The inhibition percentages exerted by compound 1r against the other 37 tested kinases were less than 28%.

[15] = target: T2, PDK1 (Homo sapiens, UniProt O15530); assay: Kinase HotSpot 40-kinase panel; format: biochemical; conditions: single-dose concentration of 1 μM
T2 construct: purchased Reaction Biology Corp. (Kinase HotSpot)
Experimental: as §3, §4

[16] = target: T3, FGFR1 (Homo sapiens, UniProt P11362); assay: Kinase HotSpot 40-kinase panel; format: biochemical; conditions: single-dose concentration of 1 μM
T3 construct: purchased Reaction Biology Corp. (Kinase HotSpot)
Experimental: as §3, §4

[17] = target: T4, CHK1 (Homo sapiens, UniProt O14757); assay: Kinase HotSpot 40-kinase panel; format: biochemical; conditions: single-dose concentration of 1 μM
T4 construct: purchased Reaction Biology Corp. (Kinase HotSpot)
Experimental: as §3, §4

[18] = target: T5, CaMKI (Homo sapiens, UniProt Q14012); assay: Kinase HotSpot 40-kinase panel; format: biochemical; conditions: single-dose concentration of 1 μM
T5 construct: purchased Reaction Biology Corp. (Kinase HotSpot)
Experimental: as §3, §4

[19] = target: T6, Aurora A (Homo sapiens, UniProt O14965); assay: Kinase HotSpot 40-kinase panel; format: biochemical; conditions: single-dose concentration of 1 μM
T6 construct: purchased Reaction Biology Corp. (Kinase HotSpot)
Experimental: as §3, §4

[20] = target: T7, FLT3 (D835Y) (Homo sapiens, UniProt P36888, D835Y); assay: Kinase HotSpot 40-kinase panel; format: biochemical; conditions: single-dose concentration of 1 μM
T7 construct: purchased Reaction Biology Corp. (Kinase HotSpot)
Experimental: as §3, §4

[21] = target: T8, HIPK2 (Homo sapiens, UniProt Q9H2X6); assay: Kinase HotSpot 40-kinase panel; format: biochemical; conditions: single-dose concentration of 1 μM
T8 construct: purchased Reaction Biology Corp. (Kinase HotSpot)
Experimental: as §3, §4

[22] = target: T9, SAPK2a (Homo sapiens, UniProt Q16539); assay: Kinase HotSpot 40-kinase panel; format: biochemical; conditions: single-dose concentration of 1 μM
T9 construct: purchased Reaction Biology Corp. (Kinase HotSpot)
Experimental: as §3, §4

[23] = target: T10, GSK3β (Homo sapiens, UniProt P49841); assay: Kinase HotSpot 40-kinase panel; format: biochemical; conditions: single-dose concentration of 1 μM
T10 construct: purchased Reaction Biology Corp. (Kinase HotSpot)
Experimental: as §3, §4

[24] = target: T11, KDR (Homo sapiens, UniProt P35968); assay: Kinase HotSpot 40-kinase panel; format: biochemical; conditions: single-dose concentration of 1 μM
T11 construct: purchased Reaction Biology Corp. (Kinase HotSpot)
Experimental: as §3, §4

[25] = target: T12, IR (Homo sapiens, UniProt P06213); assay: Kinase HotSpot 40-kinase panel; format: biochemical; conditions: single-dose concentration of 1 μM
T12 construct: purchased Reaction Biology Corp. (Kinase HotSpot)
Experimental: as §3, §4

[26] = target: T13, MEK1 (Homo sapiens, UniProt Q02750); assay: Kinase HotSpot 40-kinase panel; format: biochemical; conditions: single-dose concentration of 1 μM
T13 construct: purchased Reaction Biology Corp. (Kinase HotSpot)
Experimental: as §3, §4

[27] = target: T14, ABL1 (Homo sapiens, UniProt P00519); assay: Kinase HotSpot 40-kinase panel; format: biochemical; conditions: single-dose concentration of 1 μM
T14 construct: purchased Reaction Biology Corp. (Kinase HotSpot)
Experimental: as §3, §4

[28] = target: T15, IKKβ (Homo sapiens, UniProt O14920); assay: Kinase HotSpot 40-kinase panel; format: biochemical; conditions: single-dose concentration of 1 μM
T15 construct: purchased Reaction Biology Corp. (Kinase HotSpot)
Experimental: as §3, §4

[29] = target: T16, c-MET (Homo sapiens, UniProt P08581); assay: Kinase HotSpot 40-kinase panel; format: biochemical; conditions: single-dose concentration of 1 μM
T16 construct: purchased Reaction Biology Corp. (Kinase HotSpot)
Experimental: as §3, §4

[30] = target: T17, JNK1α1 (Homo sapiens, UniProt P45983); assay: Kinase HotSpot 40-kinase panel; format: biochemical; conditions: single-dose concentration of 1 μM
T17 construct: purchased Reaction Biology Corp. (Kinase HotSpot)
Experimental: as §3, §4

[31] = target: T18, DMPK (Homo sapiens, UniProt Q09013); assay: Kinase HotSpot 40-kinase panel; format: biochemical; conditions: single-dose concentration of 1 μM
T18 construct: purchased Reaction Biology Corp. (Kinase HotSpot)
Experimental: as §3, §4

[32] = target: T19, PLK1 (Homo sapiens, UniProt P53350); assay: Kinase HotSpot 40-kinase panel; format: biochemical; conditions: single-dose concentration of 1 μM
T19 construct: purchased Reaction Biology Corp. (Kinase HotSpot)
Experimental: as §3, §4

[33] = target: T20, ROCK1 (Homo sapiens, UniProt Q13464); assay: Kinase HotSpot 40-kinase panel; format: biochemical; conditions: single-dose concentration of 1 μM
T20 construct: purchased Reaction Biology Corp. (Kinase HotSpot)
Experimental: as §3, §4

[34] = target: T21, c-SRC (Homo sapiens, UniProt P12931); assay: Kinase HotSpot 40-kinase panel; format: biochemical; conditions: single-dose concentration of 1 μM
T21 construct: purchased Reaction Biology Corp. (Kinase HotSpot)
Experimental: as §3, §4

[35] = target: T22, BTK (Homo sapiens, UniProt Q06187); assay: Kinase HotSpot 40-kinase panel; format: biochemical; conditions: single-dose concentration of 1 μM
T22 construct: purchased Reaction Biology Corp. (Kinase HotSpot)
Experimental: as §3, §4

[36] = target: T23, RET (Homo sapiens, UniProt P07949); assay: Kinase HotSpot 40-kinase panel; format: biochemical; conditions: single-dose concentration of 1 μM
T23 construct: purchased Reaction Biology Corp. (Kinase HotSpot)
Experimental: as §3, §4

[37] = target: T24, CDK5/p25 (Homo sapiens, UniProt Q00535); assay: Kinase HotSpot 40-kinase panel; format: biochemical; conditions: single-dose concentration of 1 μM
T24 construct: purchased Reaction Biology Corp. (Kinase HotSpot)
Experimental: as §3, §4

[38] = concentration producing 50% inhibition, mean of duplicate experiments
[39] = concentration producing 100% inhibition

T11 sequence (P35968 20-1356): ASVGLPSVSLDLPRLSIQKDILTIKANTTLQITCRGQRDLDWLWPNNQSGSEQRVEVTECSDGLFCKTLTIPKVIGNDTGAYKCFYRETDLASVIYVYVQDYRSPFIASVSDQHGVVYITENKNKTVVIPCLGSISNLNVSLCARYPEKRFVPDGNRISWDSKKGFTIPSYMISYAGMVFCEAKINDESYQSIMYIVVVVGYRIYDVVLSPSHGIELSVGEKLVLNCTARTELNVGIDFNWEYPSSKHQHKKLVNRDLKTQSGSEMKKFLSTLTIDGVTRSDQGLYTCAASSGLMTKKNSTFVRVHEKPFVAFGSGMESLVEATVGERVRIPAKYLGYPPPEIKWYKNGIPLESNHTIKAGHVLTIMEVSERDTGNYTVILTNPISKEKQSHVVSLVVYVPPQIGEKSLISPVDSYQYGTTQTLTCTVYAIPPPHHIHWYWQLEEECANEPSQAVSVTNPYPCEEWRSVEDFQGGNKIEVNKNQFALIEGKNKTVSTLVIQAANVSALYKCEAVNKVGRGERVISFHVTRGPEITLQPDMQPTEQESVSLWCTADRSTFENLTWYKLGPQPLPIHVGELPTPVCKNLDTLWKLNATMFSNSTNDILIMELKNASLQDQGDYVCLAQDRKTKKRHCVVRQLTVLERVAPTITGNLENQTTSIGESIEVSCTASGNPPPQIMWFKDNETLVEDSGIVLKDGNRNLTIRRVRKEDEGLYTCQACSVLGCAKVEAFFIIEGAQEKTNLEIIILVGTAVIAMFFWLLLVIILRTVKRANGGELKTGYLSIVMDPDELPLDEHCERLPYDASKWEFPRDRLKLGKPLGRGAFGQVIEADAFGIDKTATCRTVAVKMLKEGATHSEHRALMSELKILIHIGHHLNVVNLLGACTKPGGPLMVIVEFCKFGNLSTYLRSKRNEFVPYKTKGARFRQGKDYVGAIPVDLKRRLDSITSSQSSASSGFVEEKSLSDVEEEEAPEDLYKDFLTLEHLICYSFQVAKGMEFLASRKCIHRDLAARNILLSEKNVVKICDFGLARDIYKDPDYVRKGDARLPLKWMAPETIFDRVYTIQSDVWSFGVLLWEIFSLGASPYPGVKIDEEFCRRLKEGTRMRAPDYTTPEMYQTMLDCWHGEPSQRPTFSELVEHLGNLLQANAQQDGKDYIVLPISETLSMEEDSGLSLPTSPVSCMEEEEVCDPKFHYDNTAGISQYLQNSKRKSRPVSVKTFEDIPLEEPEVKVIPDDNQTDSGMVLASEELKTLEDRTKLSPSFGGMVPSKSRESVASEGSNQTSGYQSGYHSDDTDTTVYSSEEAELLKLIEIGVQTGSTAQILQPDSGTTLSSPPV
T13 sequence (Q02750 whole entry): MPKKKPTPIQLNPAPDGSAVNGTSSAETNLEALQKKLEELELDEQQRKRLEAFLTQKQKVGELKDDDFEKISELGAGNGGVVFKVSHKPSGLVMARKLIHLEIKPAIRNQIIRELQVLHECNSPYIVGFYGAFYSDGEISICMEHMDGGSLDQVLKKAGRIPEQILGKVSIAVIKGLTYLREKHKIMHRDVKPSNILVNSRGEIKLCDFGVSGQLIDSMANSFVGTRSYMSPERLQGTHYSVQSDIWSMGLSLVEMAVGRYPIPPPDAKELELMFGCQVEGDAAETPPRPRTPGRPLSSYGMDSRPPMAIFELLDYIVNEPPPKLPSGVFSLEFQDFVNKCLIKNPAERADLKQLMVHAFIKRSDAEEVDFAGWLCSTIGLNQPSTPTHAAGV
T20 sequence (Q13464 whole entry): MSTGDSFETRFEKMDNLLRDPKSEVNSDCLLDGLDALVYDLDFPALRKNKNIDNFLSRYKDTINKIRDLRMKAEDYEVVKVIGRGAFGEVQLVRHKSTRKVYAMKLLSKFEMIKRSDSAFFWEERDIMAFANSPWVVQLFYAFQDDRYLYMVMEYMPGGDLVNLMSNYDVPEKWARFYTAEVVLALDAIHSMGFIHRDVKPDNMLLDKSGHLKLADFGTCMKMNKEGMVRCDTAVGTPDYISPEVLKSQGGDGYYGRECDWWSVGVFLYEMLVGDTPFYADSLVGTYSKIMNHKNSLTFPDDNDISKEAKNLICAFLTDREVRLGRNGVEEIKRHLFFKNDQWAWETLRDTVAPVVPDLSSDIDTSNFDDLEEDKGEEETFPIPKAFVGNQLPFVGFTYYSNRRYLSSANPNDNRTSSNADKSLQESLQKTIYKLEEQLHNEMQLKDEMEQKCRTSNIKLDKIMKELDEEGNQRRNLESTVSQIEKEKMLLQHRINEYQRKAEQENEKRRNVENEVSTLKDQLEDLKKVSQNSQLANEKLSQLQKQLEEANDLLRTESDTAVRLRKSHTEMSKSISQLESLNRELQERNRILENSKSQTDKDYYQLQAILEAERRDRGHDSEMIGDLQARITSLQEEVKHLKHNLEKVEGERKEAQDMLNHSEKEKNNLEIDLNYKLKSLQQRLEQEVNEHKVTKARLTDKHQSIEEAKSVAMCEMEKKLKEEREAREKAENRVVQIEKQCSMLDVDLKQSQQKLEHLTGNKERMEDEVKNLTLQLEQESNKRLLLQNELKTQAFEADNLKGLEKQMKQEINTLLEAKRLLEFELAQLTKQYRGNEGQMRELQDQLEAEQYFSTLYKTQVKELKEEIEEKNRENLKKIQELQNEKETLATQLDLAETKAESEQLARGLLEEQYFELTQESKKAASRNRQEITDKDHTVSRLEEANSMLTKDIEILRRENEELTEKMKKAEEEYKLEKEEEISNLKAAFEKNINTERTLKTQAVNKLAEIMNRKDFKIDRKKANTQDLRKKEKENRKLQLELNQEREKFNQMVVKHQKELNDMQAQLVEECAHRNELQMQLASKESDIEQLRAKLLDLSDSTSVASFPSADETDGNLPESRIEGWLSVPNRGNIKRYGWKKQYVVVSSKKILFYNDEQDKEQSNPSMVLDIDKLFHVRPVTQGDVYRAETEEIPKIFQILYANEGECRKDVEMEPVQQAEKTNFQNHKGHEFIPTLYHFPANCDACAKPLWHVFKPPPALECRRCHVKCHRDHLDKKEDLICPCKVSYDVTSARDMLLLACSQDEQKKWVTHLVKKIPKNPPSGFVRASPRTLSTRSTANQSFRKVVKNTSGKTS
T12 sequence (P06213 28-1382): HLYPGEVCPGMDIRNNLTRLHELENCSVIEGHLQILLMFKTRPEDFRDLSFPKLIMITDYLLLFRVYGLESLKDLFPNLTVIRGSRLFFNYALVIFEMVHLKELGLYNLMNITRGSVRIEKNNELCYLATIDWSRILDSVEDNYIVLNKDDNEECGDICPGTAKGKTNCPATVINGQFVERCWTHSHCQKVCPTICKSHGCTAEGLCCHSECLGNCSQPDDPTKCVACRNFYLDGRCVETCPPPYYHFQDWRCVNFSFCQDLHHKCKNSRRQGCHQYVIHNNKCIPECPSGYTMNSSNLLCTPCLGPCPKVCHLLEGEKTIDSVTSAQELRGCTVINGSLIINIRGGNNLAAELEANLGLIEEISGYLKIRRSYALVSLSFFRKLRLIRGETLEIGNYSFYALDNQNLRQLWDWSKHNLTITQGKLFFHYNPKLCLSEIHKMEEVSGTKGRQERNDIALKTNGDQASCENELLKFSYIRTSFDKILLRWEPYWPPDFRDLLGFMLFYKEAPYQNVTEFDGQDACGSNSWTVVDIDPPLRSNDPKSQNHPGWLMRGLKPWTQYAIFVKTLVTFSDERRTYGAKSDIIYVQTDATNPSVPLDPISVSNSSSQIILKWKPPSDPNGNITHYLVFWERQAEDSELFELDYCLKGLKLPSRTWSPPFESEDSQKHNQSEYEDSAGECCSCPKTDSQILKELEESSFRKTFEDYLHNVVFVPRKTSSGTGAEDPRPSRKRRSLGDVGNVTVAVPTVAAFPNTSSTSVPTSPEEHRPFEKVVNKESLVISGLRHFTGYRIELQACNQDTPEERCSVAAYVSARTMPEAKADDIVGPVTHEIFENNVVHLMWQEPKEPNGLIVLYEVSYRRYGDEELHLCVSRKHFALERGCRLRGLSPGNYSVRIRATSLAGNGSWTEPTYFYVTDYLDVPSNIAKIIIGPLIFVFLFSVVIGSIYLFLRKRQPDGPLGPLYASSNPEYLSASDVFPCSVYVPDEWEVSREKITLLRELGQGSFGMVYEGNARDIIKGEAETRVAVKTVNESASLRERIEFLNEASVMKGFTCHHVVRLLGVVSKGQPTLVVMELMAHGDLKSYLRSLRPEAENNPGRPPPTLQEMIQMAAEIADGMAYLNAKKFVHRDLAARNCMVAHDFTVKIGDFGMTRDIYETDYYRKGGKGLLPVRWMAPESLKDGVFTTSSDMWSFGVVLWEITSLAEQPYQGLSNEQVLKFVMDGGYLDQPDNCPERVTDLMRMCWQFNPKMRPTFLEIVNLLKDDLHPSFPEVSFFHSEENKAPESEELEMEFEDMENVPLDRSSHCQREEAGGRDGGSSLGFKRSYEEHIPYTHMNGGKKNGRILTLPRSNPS
T6 sequence (O14965 whole entry): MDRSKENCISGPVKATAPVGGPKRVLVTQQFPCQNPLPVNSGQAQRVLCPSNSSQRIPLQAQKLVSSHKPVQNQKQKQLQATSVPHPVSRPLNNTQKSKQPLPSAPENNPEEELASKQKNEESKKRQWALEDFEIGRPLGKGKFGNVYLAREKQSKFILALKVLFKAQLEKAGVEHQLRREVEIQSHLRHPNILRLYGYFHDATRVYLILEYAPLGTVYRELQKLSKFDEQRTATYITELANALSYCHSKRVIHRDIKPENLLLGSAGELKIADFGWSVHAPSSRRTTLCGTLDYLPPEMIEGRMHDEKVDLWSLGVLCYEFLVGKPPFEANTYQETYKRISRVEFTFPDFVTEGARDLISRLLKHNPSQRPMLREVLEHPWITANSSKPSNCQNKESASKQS

% Inhibition [14]: −10%
% Inhibition [15]: −7%
% Inhibition [16]: −3%
% Inhibition [17]: −6%
% Inhibition [18]: −23%
% Inhibition [19]: −2%
% Inhibition [20]: 42%
% Inhibition [21]: 6%
% Inhibition [22]: −1%
% Inhibition [23]: −3%
% Inhibition [24]: 1%
% Inhibition [25]: 5%
% Inhibition [26]: −7%
% Inhibition [27]: 15%
% Inhibition [28]: 1%
% Inhibition [29]: 40%
% Inhibition [30]: −5%
% Inhibition [31]: −1%
% Inhibition [32]: 7%
% Inhibition [33]: 2%
% Inhibition [34]: −4%
% Inhibition [35]: 1%
% Inhibition [36]: 27%
% Inhibition [37]: −5%
Structure (SMILES): Nc1nccc2c1ccn2-c1cccc(NC(=O)c2ccc(N3CCOCC3)c(C(F)(F)F)c2)c1 [Compound 1r]
pIC50 [1, 38]: 6.42
TGI [1, 39]: 10.40 µM
pIC50 [2, 38]: 6.08
TGI [2, 39]: 2.32 µM
pIC50 [3, 38]: 6.15
TGI [3, 39]: 43.3 µM
pIC50 [4, 38]: 6.47
TGI [4, 39]: >50 µM
pIC50 [5, 38]: 5.86
TGI [5, 39]: >50 µM
pIC50 [6, 38]: 6.47
TGI [6, 39]: 2.43 µM
pIC50 [7, 38]: 5.89
TGI [7, 39]: 4.67 µM
pIC50 [8, 38]: 5.90
TGI [8, 39]: 9.96 µM
pIC50 [9, 38]: 5.97
TGI [9, 39]: 26.0 µM
pIC50 [10, 38]: 6.62
TGI [10, 39]: 1.47 µM
pIC50 [11, 38]: 6.52
TGI [11, 39]: 3.14 µM
pIC50 [12, 38]: 5.75
TGI [12, 39]: 27.5 µM
pIC50 [13, 38]: 6.82
TGI [13, 39]: 6.86 µM
